In PMC13489962, “Small-molecule modulation of β-arrestins” (Nature, 2026):
Entries after “also recorded” stand apart in the source; their conditions may differ.

Assays:
βARR1–ERK2 interaction = molecular target: T1, βARR1–ERK2 interaction (Rattus norvegicus, UniProt P29066); test: Flag pulldown of βARR1 with ERK2; format: biochemical; conditions: 20-fold molar excess of compound, 30 min
T1 construct: βARR1 or βARR2 construct, with their C terminus truncated (at amino acid 393 or 394, respectively); GST (pGEX4T1) (N, cleaved yes); made in house
T1 sequence (P29066 1-393): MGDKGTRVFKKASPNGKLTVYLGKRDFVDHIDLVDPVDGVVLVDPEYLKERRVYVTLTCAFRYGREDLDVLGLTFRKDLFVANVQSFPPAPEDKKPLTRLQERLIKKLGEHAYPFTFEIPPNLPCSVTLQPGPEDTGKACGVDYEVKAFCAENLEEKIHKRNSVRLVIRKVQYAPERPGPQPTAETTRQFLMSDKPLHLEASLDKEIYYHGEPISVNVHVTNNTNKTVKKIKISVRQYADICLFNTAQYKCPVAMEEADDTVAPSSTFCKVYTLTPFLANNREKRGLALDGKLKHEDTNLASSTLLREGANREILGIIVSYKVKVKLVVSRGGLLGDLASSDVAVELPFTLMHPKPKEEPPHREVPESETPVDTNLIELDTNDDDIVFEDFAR
Description: To assess the effects of the compounds on βARR1 interactions with its effector proteins SRC and JNK3, βARR1–Flag (5 μM) was incubated with a 20-fold molar excess of Cmpd-5, Cmpd-46 or Cmpd-64 for 30 min at room temperature. Subsequently, 15 μM of SRC or JNK3 was added. To evaluate compound effects on βARR1–ERK2 binding, βARR1 (15 μM) was pre-incubated with a 20-fold molar excess of Cmpd-5, Cmpd-46 or Cmpd-64 for 30 min at room temperature, followed by the addition of 5 μM ERK2–Flag. Afterward, 50 μl of anti-Flag M2 affinity gel (Millipore Sigma) was added, and the mixtures were incubated for 1 h at room temperature with rotation. The resin was then collected by centrifugation and washed 3 times with 1 ml of 20 mM HEPES (pH 7.5), 100 mM NaCl. Bound proteins were eluted using 0.2 mg ml^−1 Flag peptide in 20 mM HEPES (pH 7.5), 100 mM NaCl, mixed with Laemmli sample buffer (Bio-Rad), and analysed by SDS–PAGE followed by western blotting. Detection was performed using monoclonal anti-Flag M2-peroxidase (HRP) antibody (1:2,000, Sigma-Aldrich A8592, RRID:AB_439702) for βARR1–Flag and ERK2–Flag; polyclonal A1CT antibody[76] (1:5,000) for βARR1; anti-SRC monoclonal antibody (1:10,000, EMD Millipore 05-184, RRID:AB_2302631) for SRC; and anti-JNK3 monoclonal antibody (1:5,000, Cell Signaling 2305, RRID:AB_2281744) for JNK3. Western blot images were taken using Bio-Rad ChemiDoc system and the densitometry analysis was performed by ImageLab v6.1 and statistical differences were determined by one-way ANOVA with Dunnett’s post hoc test in GraphPad Prism software.

M2R–Gi = test: TRUPATH BRET2 Gα–Gβγ dissociation, M2R–Gi; format: cell-based, human; conditions: 50 μM, 15 min; ACh; βarr1/2 KO cells
Description: TRUPATH assays[73] were performed in HEK293 βARR1/2-knockout cells transiently transfected using FuGENE4K with a total of 4 μg per 15 cm dish plasmid DNA, including pcDNA3.1 constructs encoding human GPCRs (β2AR, AT1R, M2R or NTSR1), Gα–RLuc8, Gβ3 and Gγ9–GFP2 at a 1:1:1:1 ratio. TRUPATH components were obtained from B. Roth via Addgene (1000000163). Twenty-four hours after transfection, cells were replated into poly-D-lysine-coated 96-well white, clear-bottom plates at 20,000–30,000 cells per well in phenol red-free DMEM supplemented with 2% FBS. BRET signals were acquired 48 h after transfection. On the day of the assay, cells were washed and incubated in HBSS containing 20 mM HEPES (pH 7.4). Modulators were applied at 50 μM for 15 min, followed by addition of Prolume Purple substrate (Nanolight Technologies). Cells were then stimulated with increasing concentrations of agonist (angiotensin II, neurotensin, isoproterenol or acetylcholine). BRET2 was recorded in kinetic mode for 30 min using a CLARIOstar Plus plate reader (480 nm/510 nm), and peak signals were used for quantification. ΔNet BRET ratios were calculated by subtracting the BRET ratio of the vehicle-treated control from each condition, agonist alone or agonist plus modulator. […]

D2R–Gi = test: TRUPATH BRET2 Gα–Gβγ dissociation, D2R–Gi; format: cell-based; conditions: 50 μM; quinpirole; βarr1/2 KO cells

## C=C1C(=O)[C@]23[C@H](O)[C@H]1CC[C@H]2[C@@]12CO[C@]3(O)[C@@H](O)[C@@H]1C(C)(C)CC[C@@H]2O [Cmpd-5, (1S,4aR,5S,6S,6aR,9S,11aS,11bS,14R)-1,5,6,14-tetrahydroxy−4,4-dimethyl-8-methylenedecahydro-1H-6,11b-(epoxymethano)-6a,9-methanocyclohepta[a]naphthalen-7(8H)-one]
βARR1–ERK2 interaction
  effect on βARR1 binding to ERK2: reduced; also recorded: significantly inhibited

## C=C1C(=O)C2=CC1CCC(=O)C1(C)CCC(OCC)C(C)(C)C1CC2O (stereo not shown) [Cmpd-46, (Z)-3-ethoxy-6-hydroxy-4,4,13a-trimethyl-9-methylene-1,2,3,4,4a,5,6,9,10,11,12,13a-dodecahydro-7,10-(metheno)benzo[11]annulene-8,13-dione]
βARR1–ERK2 interaction
  effect on βARR1 binding to ERK2: reduced
M2R–Gi
  mean fractional decrease vs DMSO in maximal Gα–Gβγ dissociation, M2R: −0.32
D2R–Gi
  mean fractional decrease vs DMSO in maximal Gα–Gβγ dissociation, D2R: −0.18

## C=C1C(=O)OC2CC3(C)OC3CCC(C)=CC(OC(C)=O)C12 (stereo not shown) [Cmpd-64, (Z)-4,10a-dimethyl-7-methylene-8-oxo-1a,2,3,6,6a,7,8,9a,10,10a decahydrooxireno[2’,3’:8,9]cyclodeca[1,2-b]furan-6-yl acetate]
βARR1–ERK2 interaction
  effect on βARR1 binding to ERK2: reduced
M2R–Gi
  mean fractional decrease vs DMSO in maximal Gα–Gβγ dissociation, M2R: −0.38
D2R–Gi
  mean fractional decrease vs DMSO in maximal Gα–Gβγ dissociation, D2R: −0.27
